Measurements: patent US11802110B2, “2-amino-N-(arylsulfinyl)-acetamide compounds as inhibitors of bacterial aminoacyl-tRNA synthetase” (priority 2016, dated 2023)
≈ marks a conversion by molar mass, not a printed value. Like-named read-outs stand apart in the source and are kept apart here.

How the values were obtained:
[1] = Human cell viability (cytotoxicity), ATP levels by CellTiter-Glo; format: cell-based; conditions: HepG2 cells (ATCC HB-8065), 24 hours incubation, read-out: IC50 (μg/mL), Cytotoxicity in HepG2 ATCC HB-8065 Cell Line
Experimental: Compounds were assessed for potential non-specific cytotoxic effects against a human hepatic cell line (HepG2 ATCC HB-8065). 96-well plates were seeded with HepG2 cells in concentration of 15,000 cells per well in 100 μL of MEM growth media completed with 1% NEAA and 1% sodium pyruvate. Border wells were filled with 100 μL of sterile PBS. Two days upon cells incubation, the compounds were added. Compound dilutions were prepared in 96-well V-bottom plate in pure DMSO. Growth media from 5 plates were aspirated and replaced with 98.7 μL of fresh growth media. 1.28 μL of compounds prepared in V-bottom plates were transferred with multichannel pipette into test plates (78.1× dilution). Final DMSO concentration was 1.28% per well. In control wells, 1.28 μL of DMSO was added in 98.7 μL of media. Compounds were tested in duplicates. Cells were incubated with compounds for 24 hours when cell viability was assessed by measuring ATP levels. ATP levels were measured by adding 50 μL of CellTiter-Glo reagent to each well and after 5 minutes of incubation luminescence was measured with SpectraMax i3. The potential effect of tested compounds on cell viability was determined by comparing the signal obtained in presence of different concentrations of the compounds with those obtained in the presence of DMSO only. The potential effects were then calculated and presented as IC50 values (μg/mL).

[2] = test system: Escherichia coli ATCC 25922 TolC deficient mutant (E. coli EFFLUX del); test: microbe, parasite or virus in culture; format: cell-based; conditions: Escherichia coli, ATCC25922
Experimental: (§1) Minimum Inhibitory Concentrations (MICs) were determined by the broth micro-dilution method performed according to Clinical Laboratory Standards Institute guidelines. For testing, 5 mg/mL DMSO solutions were prepared by dissolving solids in DMSO. Standard antibiotics were prepared according to CLSI guidelines as 5 mg/mL stock solutions. Upon DMSO stock solutions preparation, the working solutions in MH media were prepared by adding 38.4 μL of stock solution to 1461.6 μL of MH media. Out of these working solutions 100 μL were transferred to wells in the third column of 96-well assay plates. Assay plates were previously filled with 50 μL of MH media in all wells except for the wells in the third column. Upon compounds and antibiotics addition, 50 μL was transferred from the third to the fourth column, then from the fourth to the fifth and so on.
(§2) MIC value was determined by visual inspection of bacterial growth within 96-well plates. The first column in which there was no visible growth of bacteria was determined as MIC value for compound or antibiotic tested in that particular row. ATCC strains were used as reference strains for which there is a determined value of MIC values for standard antibiotics. The assay is considered valid when MIC values for standard antibiotics are within CLSI designated range for ATCC strain tested.

[3] = target: E. Coli LeuRS (Escherichia coli (strain K12), UniProt P07813); test: Study 2 - Isothermal titration calorimetry (ITC); format: binding; conditions: 25° C., pH 7.5, mean ± SD
Experimental: Escherichia coli BL21(DE3) cells transformed with plasmid pQE-60 containing the open-reading frame sequence of one targeted aaRS (i.e., LeuRS) were induced with 1 mM IPTG (isopropyl β-D-1-thiogalactopyranoside) for 3 hours at 37° C. Bacterial cells were harvested and lysed with 20 mM HEPES (4-(2-hydroxyethyl)-1-piperazinylethane-sulfonic acid) (pH 7.5), 300 mM NaCl, 15 mM imidazole and 1 mM DTT (1,4-dithio-D-threitol). The pathogenic aaRS was first purified by nickel affinity standard chromatography. The eluted protein was concentrated and then further purified by gel filtration using 50 mM HEPES (pH 7.5), 150 mM NaCl buffer.
ITC studies were carried out using a Microcal ITC200 instrument (GE Healthcare). Protein concentration was determined by spectrophotometry by measuring the absorbance at 280 nm using a theoretical molar extinction coefficient of 169,140 M^−1cm^−1. Ligand stock solutions were prepared in DMSO at 62.5 mM concentration. The titrations were performed at 25° C. with 7.5-100 μM E. Coli LeuRS in 50 mM HEPES, 150 mM NaCl, pH 7.5 buffer containing 1% DMSO (v/v). The protein solution in the 280 μL sample cell was titrated with the inhibitor solution (diluted to 75-3000 μM in the same buffer as the protein) using 1-2 μL injections every 120-140 seconds. All titrations were repeated at least two times. To correct for heats of dilution and mixing, the final baseline consisting of small peaks of identical size at the end of each experiment was subtracted. The experimental data were fitted to a theoretical titration curve (one site model) using MicroCal Origin 7 SR4 software.
Note that Compounds R-4.1 and S-4.1 (in Table 15, below) correspond to Compounds V-i and V-ii (in Tables 13 and 14, above), respectively.

[4] = test system: Haemophilus influenzae ATCC 49247; test: Study 4 - MIC by broth micro-dilution (CLSI); format: cell-based; conditions: Haemophilus influenzae, ATCC49247
Experimental: as §1, §2

[5] = test system: Pseudomonas aeruginosa ATCC 27853; test: Study 4 - MIC by broth micro-dilution (CLSI); format: cell-based; conditions: Pseudomonas aeruginosa, ATCC27853
Experimental: as §1, §2

[6] = test system: Acinetobacter baumannii B1931 clinical isolate; test: Study 4 - MIC by broth micro-dilution (CLSI); format: cell-based; conditions: Acinetobacter baumannii
Experimental: as §1, §2

[7] = test system: Klebsiella pneumoniae ATCC 700603; test: Study 4 - MIC by broth micro-dilution (CLSI); format: cell-based; conditions: Klebsiella pneumoniae, ATCC700603
Experimental: as §1, §2

[8] = test system: Enterobacter cloacae B1966 clinical isolate; test: Study 4 - MIC by broth micro-dilution (CLSI); format: cell-based; conditions: Enterobacter cloacae
Experimental: as §1, §2

[9] = test system: Escherichia coli ATCC 25922; test: Study 4 - MIC by broth micro-dilution (CLSI); format: cell-based; conditions: Escherichia coli, ATCC25922
Experimental: as §1, §2

[10] = G = H. influenzae ATCC 49247, read-out: MIC

Sequence of E. Coli LeuRS (P07813 whole entry): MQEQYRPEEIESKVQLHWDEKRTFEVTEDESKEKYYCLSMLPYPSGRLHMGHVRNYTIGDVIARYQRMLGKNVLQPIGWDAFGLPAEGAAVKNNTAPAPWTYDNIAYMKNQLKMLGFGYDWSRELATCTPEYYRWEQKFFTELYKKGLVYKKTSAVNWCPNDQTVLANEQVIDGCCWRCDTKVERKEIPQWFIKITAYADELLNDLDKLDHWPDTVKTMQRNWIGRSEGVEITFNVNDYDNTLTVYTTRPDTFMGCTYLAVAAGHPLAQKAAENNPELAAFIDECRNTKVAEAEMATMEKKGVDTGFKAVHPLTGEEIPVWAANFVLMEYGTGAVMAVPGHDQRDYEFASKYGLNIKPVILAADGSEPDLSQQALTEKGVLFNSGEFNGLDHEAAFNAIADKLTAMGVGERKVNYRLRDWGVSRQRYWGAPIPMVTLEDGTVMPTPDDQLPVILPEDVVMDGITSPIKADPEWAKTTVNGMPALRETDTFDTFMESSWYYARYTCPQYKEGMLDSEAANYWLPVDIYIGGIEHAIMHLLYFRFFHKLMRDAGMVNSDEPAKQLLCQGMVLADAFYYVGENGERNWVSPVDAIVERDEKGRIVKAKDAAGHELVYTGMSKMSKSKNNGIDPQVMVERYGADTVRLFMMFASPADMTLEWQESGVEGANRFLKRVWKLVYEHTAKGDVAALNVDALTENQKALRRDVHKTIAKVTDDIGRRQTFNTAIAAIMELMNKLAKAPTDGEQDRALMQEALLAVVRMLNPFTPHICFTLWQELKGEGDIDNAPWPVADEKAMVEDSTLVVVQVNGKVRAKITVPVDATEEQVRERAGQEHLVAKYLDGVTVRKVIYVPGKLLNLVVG

SMILES | IC50 at 24 h [1] [µg/mL] | MIC [2] [µg/mL] | Kd [3] [nM] | ΔG [3] [kcal/mol] | ΔH [3] [kcal/mol] | MIC [4, 10] [µg/mL] | MIC [5] [µg/mL] | MIC [6] [µg/mL] | MIC [7] [µg/mL] | MIC [8] [µg/mL] | MIC [9] [µg/mL] | MIC [4] [µg/mL]
CC(C)C[C@H](N)C(=O)N[S@+]([O-])c1cccc(Cl)c1 [R-4.12] | > 64 | 2 (≈ 6.93 µM) | 1.48 ± 0.08 | -11.96 ± 0.12 | -10.75 ± 1.06 | 8 (≈ 27.7 µM) | > 64 | 32 (≈ 111 µM) | 32 (≈ 111 µM) | 8 (≈ 27.7 µM) | 2 (≈ 6.93 µM) | 
COC(=O)c1cccc([S+]([O-])NC(=O)C(N)CC(C)C)c1 (centres unmarked) [4.21] | > 64 | 32 (≈ 102 µM) | 6.61 ± 0.83 | -11.16 ± 0.07 | -8.23 ± 0.43 | > 64 | > 64 | > 64 | > 64 | > 64 | 32 (≈ 102 µM) | 
CNc1cccc([S+]([O-])NC(=O)C(N)CC(C)C)c1 (centres unmarked) [4.22] | > 64 | 16 (≈ 56.5 µM) | 34.5 ± 0.76 | -10.17 ± 0.02 | -4.27 ± 0.19 | > 64 | > 64 | 32 (≈ 113 µM) | 64 (≈ 226 µM) | 32 (≈ 113 µM) | 16 (≈ 56.5 µM) | 
CC(C)CC(N)C(=O)N[S+]([O-])c1ccc(F)cc1 (centres unmarked) [4.29] | > 64 | 16 (≈ 58.7 µM) | 9.14 ± 0.3 | -10.96 ± 0.01 | -10.95 ± 0.18 | 32 (≈ 117 µM) | > 64 | 16 (≈ 58.7 µM) | 64 (≈ 235 µM) | 16 (≈ 58.7 µM) | 8 (≈ 29.4 µM) | 
CC(C)CC(N)C(=O)N[S+]([O-])c1ccccc1F (centres unmarked) [4.31] | > 64 | 2 (≈ 7.34 µM) | 6.78 ± 1.73 | -11.15 ± 0.16 | -12.97 ± 2.04 | 8 (≈ 29.4 µM) | 32 (≈ 117 µM) | 4 (≈ 14.7 µM) | 2 (≈ 7.34 µM) | 4 (≈ 14.7 µM) | 2 (≈ 7.34 µM) | 
CC(C)CC(N)C(=O)N[S+]([O-])c1ccccc1Cl (centres unmarked) [4.32] | > 64 | 8 (≈ 27.7 µM) | 4.61 ± 0.06 | -11.37 ± 0.01 | -10.62 ± 0.25 | 32 (≈ 111 µM) | > 64 | 16 (≈ 55.4 µM) | 16 (≈ 55.4 µM) | 16 (≈ 55.4 µM) | 4 (≈ 13.9 µM) | 
CC(C)CC(N)C(=O)N[S+]([O-])c1cccc(OC(F)(F)F)c1 (centres unmarked) [4.20] | > 64 | 8 (≈ 23.6 µM) | 1.39 ± 0.07 | -12.08 ± 0.03 | -11.64 ± 0.45 | 64 (≈ 189 µM) | > 64 | > 64 | > 64 | > 64 | 8 (≈ 23.6 µM) | 
C#Cc1cccc([S+]([O-])NC(=O)C(N)CC(C)C)c1 (centres unmarked) [4.27] | > 64 | 2 (≈ 7.18 µM) | 3.69 ± 0.05 | -11.50 ± 0.00 | -8.71 ± 1.08 | 16 (≈ 57.5 µM) | > 64 | > 64 | 32 (≈ 115 µM) | 8 (≈ 28.7 µM) | 4 (≈ 14.4 µM) | 
CC(C)CC(N)C(=O)N[S+]([O-])c1cccc(F)c1F (centres unmarked) [4.34] | > 64 | 0.25 (≈ 0.861 µM) | 288 ± 42.9 | -8.93 ± 0.08 | -9.90 ± 0.40 | 4 (≈ 13.8 µM) | 32 (≈ 110 µM) | 2 (≈ 6.89 µM) | 1 (≈ 3.44 µM) | 1 (≈ 3.44 µM) | 0.5 (≈ 1.72 µM) | 
CC(C)C[C@H](N)C(=O)N[S@+]([O-])c1ccccc1 (single isomer, unassigned) [R-4.1, 2,2,2-trifluoroacetate] | > 64 | 2 (≈ 7.86 µM) | 3.86 ± 0.24 | -11.48 ± 0.04 | -11.92 ± 0.34 |  | 32 (≈ 126 µM) | 8 (≈ 31.5 µM) | 8 (≈ 31.5 µM) | 4 (≈ 15.7 µM) | 2 (≈ 7.86 µM) | 16 (≈ 62.9 µM)
CC(C)CC(N)C(=O)N[S+]([O-])c1cccc(-c2ccccc2)c1 (centres unmarked) [4.17] | 47.7 (≈ 144 µM) | 64 (≈ 194 µM) | 4.47 ± 0.04 | -11.39 ± 0.01 | -9.72 ± 0.22 | > 64 | > 64 | > 64 | > 64 | > 64 | > 64 | 
C=Cc1cccc([S+]([O-])NC(=O)C(N)CC(C)C)c1 (centres unmarked) [4.16] | > 64 | 8 (≈ 28.5 µM) | 27.2 ± 8.44 | -10.34 ± 0.19 | -4.89 ± 0.08 | 32 (≈ 114 µM) | > 64 | 32 (≈ 114 µM) | > 64 | 32 (≈ 114 µM) | 8 (≈ 28.5 µM) | 
CC(C)CC(N)C(=O)N[S+]([O-])c1ccccc1C#N (centres unmarked) [4.30] | 32.5 (≈ 116 µM) | 16 (≈ 57.3 µM) |  |  |  | 8 (≈ 28.6 µM) | 32 (≈ 115 µM) | 8 (≈ 28.6 µM) | 32 (≈ 115 µM) | 32 (≈ 115 µM) | 16 (≈ 57.3 µM) | 
CC(C)C[C@H](N)C(=O)N[S@@+]([O-])c1ccccc1 (single isomer, unassigned) [S-4.1] | > 64 | 64 (≈ 252 µM) | 9130 ± 2720 | -6.89 ± 0.16 | -2.33 ± 0.13 | > 64 | > 64 | > 64 | > 64 | > 64 | 64 (≈ 252 µM) | 
CC(C)CC(N)C(=O)N[S+]([O-])c1cc(F)cc(F)c1 (centres unmarked) [4.35] | > 64 | 16 (≈ 55.1 µM) | 16.4 ± 2.72 | -10.63 ± 0.10 | -9.97 ± 0.10 | > 64 | > 64 | > 64 | > 64 | 64 (≈ 220 µM) | 16 (≈ 55.1 µM) | 
CC(C)CC(N)C(=O)N[S+]([O-])c1cccc(C(F)(F)F)c1 (centres unmarked) [4.18] | > 64 | 16 (≈ 49.6 µM) | 6.06 ± 0.49 | -11.20 ± 0.06 | -7.03 ± 0.14 | > 64 | > 64 | > 64 | > 64 | > 64 | 64 (≈ 199 µM) | 
